Measured values published in PubChem BioAssay (NCI).
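GI50: concentration for 50% inhibition of growth. TGI denotes the concentration required for complete inhibition of growth.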

Assays:
Assay in all cases: inhibition of tumour cell growth, NCI panel, 384-well format; in the data active = GI50 below about 0.43 µM; inactive = the rest
[1] = test system: LOX IMVI melanoma
[2] = test system: NCI-H522 lung
[3] = test system: HS 578T breast
[4] = test system: M14 melanoma
[5] = test system: SF-295 CNS
[6] = test system: SK-MEL-5 melanoma
[7] = test system: IGROV1 ovarian
[8] = test system: A549 NSCLC
[9] = test system: NCI-H23 lung
[10] = test system: RXF 393 renal
[11] = test system: MOLT-4 leukemia
[12] = test system: UACC-62 melanoma
[13] = test system: HCT-15 colon
[14] = test system: MDA-MB-468 breast
[15] = test system: KM12 colon
[16] = test system: HCC-2998 colon
[17] = test system: HOP-92 NSCLC
[18] = test system: CAKI-1 renal
[19] = test system: OVCAR-8 ovarian
[20] = test system: SF-539 CNS
[21] = test system: A498 renal
[22] = test system: SR leukemia
[23] = test system: UACC-257 melanoma
[24] = test system: DU-145 prostate
[25] = test system: HT29 colon
[26] = test system: HCT-116 colon
[27] = test system: PC-3 prostate

O=C1Nc2ccc(CN3CCOC3=O)cc2/C1=C/c1cc(CN2CCOCC2)c[nH]1
68.1 µM: TGI [16]
68.3 µM: TGI [1]
> 100 µM: TGI [3] | TGI [4] | TGI [5] | TGI [7] | TGI [8] | TGI [9] | TGI [10] | TGI [12] | TGI [15] | TGI [17] | TGI [18] | TGI [19] | TGI [20] | TGI [21] | TGI [23] | TGI [24] | TGI [25] | TGI [26]
85.1 µM: TGI [14]
93.1 µM: TGI [13]
inactive: GI50 [1] 28.7 µM | GI50 [2] 21.6 µM | GI50 [3] 64.6 µM | GI50 [4] 49 µM | GI50 [5] 33.8 µM | GI50 [6] 15.7 µM | GI50 [7] 43.4 µM | GI50 [8] 49.7 µM | GI50 [9] 25.2 µM | GI50 [10] 96.3 µM | GI50 [11] 20.5 µM | GI50 [12] 45.1 µM | GI50 [13] 27.9 µM | GI50 [14] 23 µM | GI50 [15] 5.29 µM | GI50 [16] 30.1 µM | GI50 [17] > 100 µM | GI50 [18] 58.5 µM | GI50 [19] 37.8 µM | GI50 [20] 53.8 µM | GI50 [21] > 100 µM | GI50 [22] 14 µM | GI50 [23] 35.6 µM | GI50 [24] 45.9 µM | GI50 [25] 30.4 µM | GI50 [26] 41.2 µM | GI50 [27] 35.3 µM
55.2 µM: TGI [2]
36.5 µM: TGI [11]
30.6 µM: TGI [22]
98.1 µM: TGI [27]
30.8 µM: TGI [6]
